Data reported in ChEMBL document CHEMBL5131471, “Design, synthesis and mechanism studies of novel dual PARP1/BRD4 inhibitors against pancreatic cancer” (Eur J Med Chem, 2022).
The source made the active and inactive calls. The calls are words filed in the database; no cut-off is given here.

Experiments:
[1] = test system: SW1990; experiment: Effect on CCND1 gene expression in human SW1990 cells at 1 uM in presence of Olaparib by Q-PCR analysis; format: functional, cell-based
[2] = test system: SW1990; experiment: Induction of cell cycle arrest in human SW1990 cells assessed as accumulation of cells at S phase at 4 uM incubated for 4 days by propidium iodide staining based flow cytometry (reference value: 29.32%); format: functional; settings: time 4 day
[3] = test system: SW1990; experiment: Effect on HEXIM1 gene expression in human SW1990 cells at 1 uM in presence of Olaparib by Q-PCR analysis; format: functional, cell-based
[4] = test system: SW1990; experiment: Effect on E2F2 gene expression in human SW1990 cells at 4 uM by Q-PCR analysis; format: functional, cell-based
[5] = test system: SW1990; experiment: Effect on FOXO1 gene expression in human SW1990 cells at 1 uM in presence of Olaparib by Q-PCR analysis; format: functional, cell-based
[6] = test system: SW1990; experiment: Effect on CDC25A gene expression in human SW1990 cells at 1 uM in presence of Olaparib by Q-PCR analysis; format: functional, cell-based
[7] = test system: SW1990; experiment: Effect on Rad51 gene expression in human SW1990 cells at 4 uM by Q-PCR analysis; format: functional, cell-based
[8] = test system: SW1990; experiment: Induction of apoptosis in human SW1990 cells assessed as late apoptotic cells at 1 uM measured after 4 days in presence of 3 uM Olaparib by Annexin V-FITC and propidium iodide staining based flow cytometry (reference value: 7.23%); format: functional; settings: time 4 day
[9] = test system: SW1990; experiment: Effect on FOXM1 gene expression in human SW1990 cells at 1 uM in presence of Olaparib by Q-PCR analysis; format: functional, cell-based
[10] = test system: SW1990; experiment: Effect on CDC25B gene expression in human SW1990 cells at 1 uM in presence of Olaparib by Q-PCR analysis; format: functional, cell-based
[11] = test system: SW1990; experiment: Induction of apoptosis in human SW1990 cells assessed as late apoptotic cells at 6 uM measured after 4 days by Annexin V-FITC and propidium iodide staining based flow cytometry (reference value: 7.23%); format: functional; settings: time 4 day
[12] = test system: Mus musculus; experiment: Upregulation of CCND1 expression in nude mouse xenografted with human SW1990 cells at 45 mg/kg, ip measured after 4 days by Q-PCR analysis; format: functional, organism-based; settings: time 4.0 day
[13] = test system: Mus musculus; experiment: Upregulation of CDK6 expression in nude mouse xenografted with human SW1990 cells at 45 mg/kg, ip measured after 4 days by Western blot analysis; format: functional, organism-based; settings: time 4.0 day
[14] = test system: Mus musculus; experiment: Upregulation of CDK1 expression in nude mouse xenografted with human SW1990 cells at 45 mg/kg, ip measured after 4 days by Western blot analysis; format: functional, organism-based; settings: time 4.0 day
[15] = test system: SW1990; experiment: Induction of apoptosis in human SW1990 cells assessed as early apoptotic cells at 6 uM measured after 4 days by Annexin V-FITC and propidium iodide staining based flow cytometry (reference value: 1.62%); format: functional; settings: time 4 day
[16] = test system: SW1990; experiment: Effect on TOPBP1 gene expression in human SW1990 cells at 6 uM by Q-PCR analysis; format: functional, cell-based
[17] = test system: SW1990; experiment: Upregulation of ALDH1A1 expression in human SW1990 cells at 6 uM measured after 4 days by Western blot analysis; format: functional, cell-based; settings: time 4.0 day
[18] = test system: SW1990; experiment: Effect on MDC1 gene expression in human SW1990 cells at 6 uM by Q-PCR analysis; format: functional, cell-based
[19] = test system: Mus musculus; experiment: Upregulation of CDK6 expression in nude mouse xenografted with human SW1990 cells at 45 mg/kg, ip measured after 4 days by Q-PCR analysis; format: functional, organism-based; settings: time 4.0 day
[20] = test system: SW1990; experiment: Inhibition of CDK6 protein expression in human SW1990 cells at 1 to 2 uM measured after 4 days by Western blot analysis; format: functional, cell-based; settings: dose 1-2 µM, time 4.0 day
[21] = test system: Mus musculus; experiment: Inhibition of homologous recombinant repair in nude mouse xenografted with human SW1990 cells assessed as reversal of olaparib-induced FOXM1 expression at 30 mg/kg, ip measured after 4 days by Western blot analysis; format: functional, organism-based; settings: time 4.0 day
[22] = test system: SW1990; experiment: Induction of cell cycle arrest in human SW1990 cells assessed as accumulation of cells at G0/G1 phase at 2 uM incubated for 4 days by propidium iodide staining based flow cytometry (reference value: 64.79%); format: functional; settings: time 4 day
[23] = test system: SW1990; experiment: Effect on c-Myc gene expression in human SW1990 cells at 1 to 2 uM by Q-PCR analysis; format: functional, cell-based; settings: dose 1-2 µM
[24] = test system: Mus musculus; experiment: Inhibition of homologous recombinant repair in nude mouse xenografted with human SW1990 cells assessed as reversal of olaparib-induced BRCA1 expression at 30 mg/kg, ip measured after 4 days by Western blot analysis; format: functional, organism-based; settings: time 4.0 day
[25] = test system: Mus musculus; experiment: Inhibition of CCND1 expression in nude mouse xenografted with human SW1990 cells at 30 mg/kg, ip measured after 4 days by Q-PCR analysis; format: functional, organism-based; settings: time 4.0 day
[26] = test system: Mus musculus; experiment: Inhibition of PARP1 expression in nude mouse xenografted with human […] cells at 30 mg/kg, ip administered for 28 days by Western blot analysis; format: functional, organism-based; settings: time 28.0 day
[27] = test system: SW1990; experiment: Inhibition of homologous recombinant repair in human SW1990 cells assessed as reversal of Olaparib-induced HEXIM1 expression at 1 to 2 uM after 4 days by Western blot analysis; format: functional, cell-based; settings: dose 1-2 µM, time 4.0 day
[28] = test system: SW1990; experiment: Induction of cell cycle arrest in human SW1990 cells assessed as accumulation of cells at G2/M phase at 2 uM incubated for 4 days by propidium iodide staining based flow cytometry (reference value: 5.89%); format: functional; settings: time 4 day

Cc1sc2c(c1C)C(c1ccc(Cl)cc1)=N[C@@H](CC(=O)OC(C)(C)C)c1nnc(C)n1-2
Activity [1]: Active | Activity [2]: 19.43% | Activity [3]: Active | Activity [4]: Active | Activity [5]: Active | Activity [6]: Active | Activity [7]: Active | Activity [8]: 34.5% | Activity [9]: Active | Activity [10]: Active

O=C(c1cc(Cc2n[nH]c(=O)c3ccccc23)ccc1F)N1CCN(C(=O)C2CC2)CC1 [OLAPARIB]
Activity [11]: 22.9% | Activity [12]: Active | Activity [13]: Active | Activity [14]: Active | Activity [15]: 1.84% | Activity [16]: Active | Activity [17]: Active | Activity [18]: Active | Activity [19]: Active

Cc1noc(C)c1-c1ccc2c(c1)C(c1ccccc1)N(Cc1nc3c(C(N)=O)cccc3[nH]1)C(=O)N2C (stereo not drawn)
inhibition [20]: Active | inhibition [21]: Active | Activity [22]: 78.17% | Activity [23]: Active | inhibition [24]: Active | inhibition [25]: Active | inhibition [26]: Active | inhibition [27]: Active | Activity [28]: 12.83%
